Source: patent US7371812B2, “Antiangiogenic peptides” (Children's Medical Center Corporation, priority 2003, dated 2008)

Experiments:
[1] = tested on: activated type I collagenase; experiment: 14C-Collagen Film Assay of MMP-inhibitory activity; type: biochemical; details: T2C and EAT2N up to approximately 100-fold the IC50 of T2N
Protocol: MMP-inhibitory activity was assessed using a quantitative ^14C-Collagen Film Assay, as previously described by us (Moses et al., 1990). Briefly, ^14C-labeled collagen was added to 96 well plates and allowed to polymerize. To determine inhibitory activity, wells were treated with a known amount of activated type I collagenase plus test sample or with collagenase alone, and the plates incubated at 37° C. for 2.5 hours to allow for release of ^14C by the enzyme. Supernantants were then analyzed in a Wallac Scintillation Counter, and percent inhibition of collagenolytic activity was calculated. An IC50 was defined as the amount of protein necessary to inhibit the proteolytic activity of collagenase by 50%.

[2] = tested on: Capillary endothelial cells (EC), isolated from bovine adrenal cortex; experiment: bFGF-stimulated capillary EC proliferation assay; type: cell-based
Protocol: Capillary endothelial cells (EC), isolated from bovine adrenal cortex, were a kind gift of Dr. Judah Folkman (Children's Hospital, Boston) and were maintained in DMEM (Gibco) supplemented with 10% calf serum (HyClone) and 3 ng/ml bFGF, and grown at 37° C. in 10% CO2. Capillary EC proliferation was measured as previously reported by us (Moses et al., 1990; Moses et al., 1992; O'Reilly et al., 1994; Moses et al., 1999) using a modification of the method of Connolly and coworkers (and verified by cell counting using a Coulter Counter) (Connolly et al., 1986). Briefly, capillary EC were plated on pre-gelatinized 96 well plates at a density of 2,000 cells per well in DMEM supplemented with 5% calf serum and allowed to attach for 24 hours. The next day, cells were treated with fresh media with or without 1 ng/ml bFGF and challenged with the test proteins at various concentrations. All samples were tested in duplicate. Control wells contained cell treated with media alone or media with bFGF. After 72 hours, the media was removed and the cells were lysed in buffer containing Triton X-100 and the phosphatase substrate p-nitrophenyl phosphate. After a two-hour incubation at 37° C., NaOH was added to each well to terminate the reaction and cell density was determined by calorimetric analysis using a SpectraMax 190 multiwell plate reader (Molecular Devices).

[3] = tested on: embryonic angiogenesis in the chick chorioallantoic membrane; experiment: Chick chorioallantoic membrane assay (CAM); type: in vivo; details: methylcellulose disc, 48 hours
Protocol: The chick CAM assay was conducted as previously reported by us (Moses et al., 1990; Moses et al., 1992; O'Reilly et al., 1994; Moses et al., 1999; Fang et al., 2000) Briefly, three day old chick embryos were removed from their shells and incubated in plastic Petri dishes for three days. On embryonic day 6, samples and controls mixed into methylcellulose discs were applied to the surfaces of developing CAMs, above the dense subectodermal plexus. After 48 hours of incubation, the eggs were examined for vascular reactions under a dissecting scope (60×) and photographed. All determinations were made by 3 independent members of the laboratory, in a double-blinded fashion.

[4] = tested on: bFGF-driven corneal neovascularization; experiment: Mouse corneal pocket assay; type: in vivo
Protocol: In vivo inhibition of angiogenesis was also tested using the mouse corneal pocket assay as previously described (O'Reilly et al., 1994; Moses et al., 1999). […] Each animal carried a pellet containing the test sample plus bFGF in one eye, and a control bFGF pellet in the contralateral eye. After six days, angiogenesis was evaluated using a slit lamp microscope, and each eye was photographed. The area of neovascularization for each cornea was calculated from the length of the vessels (VL) invading the cornea as well as the clock hours (CH) covered as described by the formula VL×CH×0.0628.

Capillary EC [5] = experiment: Apoptosis assay (TUNEL, DAPI); type: cell-based, bovine; details: bFGF-stimulated, 6 hours; Loop 6 at IC50 dose, wortmannin 100 mM
Protocol: In situ detection of cell death was determined using terminal deoxynucleotidyl transferase dUTP nick-end labeling (TUNEL) following manufacturer's instructions (In Situ Cell Death Detection Kit, Roche Applied Science, Indianapolis, Ind.). Capillary EC were plated at a density of 10,000 cells per well on pre-gelatinized Lab-Tek Chamber Slides (Nalge Nunc, Naperville, Ill.) in DMEM supplemented with 5% calf serum and allowed to attach for 24 hours. The next day, cells were treated with fresh media supplemented with 1 ng/ml bFGF and challenged with an IC50 dose of Loop 6 or […] wortmannin, a dose previously reported to induce apoptosis of capillary E (Flusberg et al., 2001). Cells stimulated with bFGF alone were also used as controls. All samples were tested in duplicate. After 6 hours, the cells were rinsed with PBS and then fixed in 4% paraformaldehyde for 1 hour at room temperature. Fixed cells were again rinsed with PBS and permeabilised with 0.1% Triton X-100 in 0.1% sodium citrate on ice for 2 minutes. After two more rinses in PBS, the cells were exposed to TUNEL reaction mixture and incubated at 37° C. […] Apoptotic nuclei were detected using a Nikon Eclipse TE300 microscope (Nikon Instruments, Melville, N.Y.).

Capillary EC [6] = experiment: Cell cycle analysis by flow cytometry; type: cell-based, bovine; details: synchronized, bFGF-stimulated, 16 hours; for cells in G1 / cells in G2/M: IC50 dose of Loop 6 or equivalent dose of T2-Tail
Protocol: Capillary EC were plated at a density of 100,000 cells per plate unto pre-gelatinized 60 mm dishes in DMEM supplemented with 5% calf serum and allowed to attach overnight. The next day, the media was replaced with DMEM supplemented with 0.4% calf serum in order to synchronize the cells by serum starvation. After 36 hours, synchronized cells were stimulated with DMEM containing 5% calf serum plus 1 ng/ml bFGF, and then treated with an IC50 dose of Loop 6 or an equivalent dose of the T2-Tail peptide as control. After 16 hours, the cells were rinsed with PBS, trypsinized and collected by centrifugation. Pelleted cells were rinsed again with PBS and resuspended in 1 ml of 80% ethanol in PBS, and stored at −20° C. overnight. The next morning, cells were collected by centrifugation and resuspended in 500 μl of staining solution (0.1% sodium citrate, 100 μg/ml RNAse A, 0.1% Nonidet-P40, 50 μg/ml propidium iodide). After 30 minutes, DNA content of the cells and the percentages of cells in the various stages of the cell cycle were determined using a FACSVantage SE (Becton Dickinson, Franklin Lanes, N.J.). FACS analysis was performed at the Howard Hughes Institute of Medicine FACS Core Facility at Children's Hospital. All samples were tested in at least duplicate. Histograms of representative experiments for each test condition were created using WinMDI 2.8 (The Scripps Research Institute, La Jolla, Calif.).

[7] = tested on: Cyclin D1, Cyclin E, Cyclin A and p27 in capillary EC lysates; experiment: Immunoblot analyses of cell cycle associated proteins; type: cell-based, bovine; details: IC50 dose, 16 hours, versus bFGF-stimulated controls
Protocol: Western analyses of capillary EC lysates were performed as previously described by us (Moses et al., 1999; Yan et al., 2001). Capillary EC were plated, synchronized and treated with an IC50 dose of Loop 6 as described above for cell cycle analysis. After 16 hours, cells exposed to bFGF alone or bFGF and Loop 6 were rinsed in PBS and lysed directly in the culture dish by addition of 500 μl of lysis buffer (1% SDS in 10 mM Tris-Hcl, pH 7.4). Collected lysates were boiled for 5 minutes, mixed by vortexing and then placed on ice. Samples were repeatedly passed through a 22-gauge syringe needle in order to shear the DNA. The samples were then centrifuged, and the supernatant collected. Protein concentration of the lysates was determined using the MicroBCA method (Pierce, Rockford, Ill.). Equal amounts of protein were loaded unto 12% SDS-PAGE gels under reducing conditions, resolved by electrophoresis and subsequently transferred to nitrocellulose using a TransBlot apparatus (BioRad). […] Labeled proteins were detected using Supersignal West Pico Chemiluminescence Substrate (Pierce).

[8] = tested on: vascular smooth muscle cells; experiment: Vascular smooth muscle cell proliferation (data not shown); type: cell-based
Capillary EC [9] = experiment: FGF competition assay; type: cell-based, bovine; details: IC50 dose of Loop 6, increasing concentrations of bFGF
Excerpt: To further map the anti-proliferative activity of TIMP-2 within T2C, three peptides corresponding to various smaller domains of T2C were synthesized, purified and tested for their ability to inhibit bFGF-stimulated capillary EC proliferation in vitro. These domains and are depicted in FIG. 6A. […] Given that Loop 6 inhibits bFGF-driven endothelial cell proliferation, we asked whether Loop 6 could directly compete with bFGF.

Row | Molecule | inhibition of MMP activity [1] | effect on bFGF-stimulated capillary EC proliferation ([2]; 1 ng/ml bFGF, 72 hours) | effect on neovascularization in the CAM [3] | cells in G1 (Capillary EC [6]) | cells in G2/M (Capillary EC [6]) | also measured
1 | Loop 6: 24 amino acid peptide corresponding to Loop 6 of TIMP-2, sequence ECLWMDWVTEKNINGHQAKFFACI (SEQ ID NO: 1) | neither T2C nor Loop 6 inhibit MMP activity | significantly inhibited capillary EC proliferation | resulted in avascular zones at doses comparable to those tested for T2C | 45.6% | 9.53% | suppression of bFGF-stimulated neovascularization ([4]; 3 μg/eye, versus contralateral control eyes): ~80%; induction of apoptosis (apoptotic nuclei) (Capillary EC [5]): not an inducer of apoptosis; number of cells in S-phase (Capillary EC [6]; IC50 dose): did not change significantly; level of p27 [7]: significantly increased; levels of Cyclins D1, E or A [7]: No significant differences; proliferation of vascular smooth muscle cells [8]: did not inhibit the proliferation of vascular smooth muscle cells; competition with bFGF (Capillary EC [9]): not abrogated by increasing doses of bFGF
2 | T2-Tail: 19 amino acid peptide corresponding to the carboxy-terminal tail of TIMP-2, sequence AWYRGAAPPKQEFLDIEDP (SEQ ID NO: 3) [reference compound] | – | had no effect | Neither Loop 5 nor the T2-Tail peptides had any significant effect on neovascularization | 27.8% | 34.6% | –
3 | VIRAK: control peptide of sequence VIRAK (SEQ ID NO: 4), conserved sequence in the N-terminal domain of all TIMPs [reference compound] | – | no inhibition of capillary EC proliferation | – | – | – | –
4 | Loop 5: 10 amino acid peptide corresponding to Loop 5 of TIMP-2, sequence TRCPMIPCYI (SEQ ID NO: 2) [reference compound] | – | stimulated the proliferation of capillary EC | Neither Loop 5 nor the T2-Tail peptides had any significant effect on neovascularization | – | – | –
5 | T2C: recombinant His-tagged TIMP-2 domain composed of the three C-terminal disulfide-bonded loops (~8.5 kD), expressed in Pichia pastoris (protein, disulfide (positions not given here); also: His tag, disulfide pairing not given here, recombinant His-tagged TIMP-2 domain composed of the three C-terminal disulfide-bonded loops (~8.5 kD), expressed in Pichia pastoris) CKITRCPMIPCYISSPDECLWMDWVTEKNINGHQAKFFACIKRSDGSCAWYRGAAPPKQEFLDIEDP | No significant inhibition of MMP activity | – | decrease in neovascularization | – | – | cytotoxicity to capillary EC [2]: no evidence of cytotoxicity; IC50 ([2]; 1 ng/ml bFGF, 72 hours, read-out: IC50 of inhibition of capillary EC proliferation): ~140 nM; lowest dose producing avascular zones [3]: 112 pmol per egg; reduction of bFGF-driven corneal neovascularization ([4]; 5 μg/eye, versus contralateral control eye with only bFGF, six days): 87%
